Measurements as given in US9352049B2, “Ligand-therapeutic agent conjugates, silicon-based linkers, and methods for making and using them” (Albany Molecular Research, Inc., priority 2013, dated 2016).

How the values were obtained:
[1] = Cleavage study of silyl conjugates at pH 4.5 (1:1 THF:0.05 M acetate buffer, 37° C., HPLC); type: physicochemical; conditions: HPLC over 24 hours
Description: (§1) To study the release properties of the silyl conjugates, the conjugates were subject to hydrolysis conditions at both pH 7.4 and pH 4.5 to simulate blood and endosomes/lysosome environments, respectively.
The benzyl ester intermediates from Example 11 (step A), Example 12, Example 13, Example 14 (step A), and Example 15 were each dissolved in a 1:1 mixture of THF:0.05 M acetate buffer (pH 4.5) and heated to 37° C. with stirring. The mixture was analyzed with HPLC at T=1, 2, 3, 4, 5, 7 and 24 hours via Method B (see General Procedures in Example 1). Aliquots were quenched in a 1:1 acetonitrile:triethylamine solvent mixture to halt the hydrolysis reaction and allowed to stand up to 48 hours before HPLC analysis.

[2] = Cleavage study of silyl conjugates at pH 7.4 (THF:0.01 M PBS buffer, 37° C.); type: physicochemical; conditions: pH 7.4, 37° C., after 24 hours
Description: as §1
Example 12 and Example 15 were dissolved in THF:0.01 M PBS buffer (pH 7.4) and heated to 37° C. with stirring for over 20 hours. […] Additionally, Example 11 was trapped with methyl-3-mercaptopropionate to approximate a bioconjugate.

Structure (SMILES): CC[C@]1(O)CC2CN(CCc3c([nH]c4ccccc34)[C@@](C(=O)OC)(c3cc4c(cc3OC)N(C)[C@H]3[C@@](O)(C(=O)OC)[C@H](O[Si]5(CCCCC(=O)NCCOCCN6C(=O)CC(SCCC(=O)OC)C6=O)CCCCC5)[C@]5(CC)C=CCN6CC[C@]43[C@@H]65)C2)C1 (stereo partly drawn) [Example 19, (3aR,3a^1R,4R,5S,10bR)-methyl 3a-ethyl-9-((5S,7R,9S)-5-ethyl-5-hydroxy-9-(methoxycarbonyl)-2,4,5,6,7,8,9,10-octahydro-1H-3,7-methano[1]azacycloundecino[5,4-b]indol-9-yl)-5-hydroxy-8-methoxy-4-((1-(5-((2-(2-(3-((3-methoxy-3-oxopropyl)thio)-2,5-dioxopyrrolidin-1-yl)ethoxy)ethyl)amino)-5-oxopentyl)silinan-1-yl)oxy)-6-methyl-3a,3a^1,4,5,5a,6,11,12-octahydro-1H-indolizino[8,1-cd]carbazole-5-carboxylate]
- hydrolysis (release of desilylated parent vinca) in acidic media [1]: undergo parent vinca release at a rate comparable to the corresponding benzyl ester from Example 11 (step A)
- desilylation at pH 7.4 [2]: no desilylation was observed
